Data set [1] deals with Vesicular Monoamine Transporter Isoform 2 (VMAT2) (UniProt Q01827). Briefly: VMAT2 competition binding assay ([3H]dihydrotetrabenazine, whole brain membranes). The note with it: for IC50: read-out: VMAT2 binding affinity IC50, [3H]Dihydrotetrabenazine 10 nM, 30 min at 25° C.; for Ki: read-out: VMAT2 binding affinity Ki, Cheng-Prusoff from IC50.
Description: IC50 values were determined by a non-linear, least squares regression analysis using MathIQ™ (ID Business Solutions Ltd., UK).
A short description of data set [2]: Color stability in organic solvents at 37° C. Format: physicochemical. Conditions: incubation at 37° C. for 7 days, organic solvents (FIG. 1).
Data set [3] is described as follows: Solubility in pharmaceutical acceptable oils. The note with it: for solubility in pharmaceutical acceptable oils (in words): castor, peanut, soybean oil; for solubility: oil or lipid, thermodynamic from solid, 37° C. Type of data set: physicochemical. The method, then: Conventionally, fatty acids are used to conjugate with a drug to enhance drug's lipophilicity to increase its solubility in oils. The solubility of compounds of the present application in various oils were tested. The suspension of compounds in various pharmaceutical acceptable oils, including castor oil, sesame oil, cottonseed oil, peanut oil and soybean oil, were stirred at 37° C. for 2-3 days. At designed time point, about 200 to 300 μL aliquots were taken and centrifuged at 14,000 rpm for 2 min without temperature control. The supernatant was carefully withdrawn and extracted with 9 folds of ACN. The mixture was then vortexed for 30 sec and subsequently centrifuged at 14,000 rpm for 2 min without temperature control. The supernatant (300 uL) was taken and diluted with 1 fold of isopropanol (IPA) and then analyzed by HPLC to determine the amount of dissolved compounds. The oil without compound after same extraction/dilution step was used as control. […] The higher oil solubility can be advantageously used to make long acting or sustained release formulation to deliver the active compounds.

The nature of data set [4]: Aqueous solubility of compounds. The note with it: for aqueous solubility compared with compound IV: all tested conditions; for solubility: aqueous buffer, thermodynamic from solid, 37° C. Type of data set: physicochemical. As for the experimental part:
Compound suspensions (2 mg/m L) in various aqueous solutions, including 10 mM pH 4.0 citrate-saline buffer, 10 mM pH 5.0 citrate-saline buffer, 10 mM pH 5.8 PBS, 10 mM pH 7.4 PBS, 10 mM pH 8.5 borate-saline buffer, pure water and serum, were stirred at 37° C. for 2-3 days. Daily, 0.5 to 1 mL aliquots were taken and centrifuged at 14,000 rpm for 2 min without temperature control. The supernatant was analyzed by HPLC to determine the amount of dissolved compounds.

Data set [5] is described as follows: Solubility in pharmaceutical acceptable organic solvents. Conditions: for solubility: organic solvent or mixture, thermodynamic from solid, 37° C. Type of data set: physicochemical. The method, then:
Previously, non-aqueous solvents, such as organic solvents, have long been utilized in injectable pharmaceutical products to dissolve water-insoluble drugs. Here, the solubility of compounds of the present application in various organic solvents were tested. The compound suspensions in various pharmaceutical acceptable organic solvents, including dimethylacetamide (DMAc), Dimethyl sulfoxide (DMSO), triacetin (TA), were stirred at 37° C. at designed time interval. At the designed time point, 0.5 mL aliquots were taken and centrifuged at 14,000 rpm for 2 min without temperature control. The supernatant was diluted with ACN and then analyzed by HPLC to determine the amount of dissolved compounds.

Data set [6] deals with porcine liver esterase (PLE). As to the kind of experiment: Enzymatic ester hydrolysis via porcine liver esterase. Format: in vitro ADME.
The target in data set [7] is VMAT2 (Bos taurus, UniProt Q27963). Conditions: Scherman et al., 1983; cited from earlier work.
In data set [8] the target is VMAT2 (Rattus norvegicus, UniProt Q01827). The note with it: as disclosed in U.S. Pat. No. 8,039,627; read-out: VMAT2 binding affinity, Ki; cited from earlier work.
The conditions of data set [9]: human liver assay, response in application Ser. No. 11/937,445; cited from earlier work.
In data set [10] the target is VMAT2. Conditions: see 17 of the Declaration; cited from earlier work.
Setting [11] is: borate-saline buffer, Borate (10 mM, pH 8.5).
Setting [12] is: citrate-saline buffer, Citrate buffer (10 mM, pH 5.0).

≈ marks a conversion by molar mass, not a printed value. A value given as a limit tells only on which side of the number the result lay.

Sequence of VMAT2 (Bos taurus, UniProt Q27963) (Q27963 whole entry): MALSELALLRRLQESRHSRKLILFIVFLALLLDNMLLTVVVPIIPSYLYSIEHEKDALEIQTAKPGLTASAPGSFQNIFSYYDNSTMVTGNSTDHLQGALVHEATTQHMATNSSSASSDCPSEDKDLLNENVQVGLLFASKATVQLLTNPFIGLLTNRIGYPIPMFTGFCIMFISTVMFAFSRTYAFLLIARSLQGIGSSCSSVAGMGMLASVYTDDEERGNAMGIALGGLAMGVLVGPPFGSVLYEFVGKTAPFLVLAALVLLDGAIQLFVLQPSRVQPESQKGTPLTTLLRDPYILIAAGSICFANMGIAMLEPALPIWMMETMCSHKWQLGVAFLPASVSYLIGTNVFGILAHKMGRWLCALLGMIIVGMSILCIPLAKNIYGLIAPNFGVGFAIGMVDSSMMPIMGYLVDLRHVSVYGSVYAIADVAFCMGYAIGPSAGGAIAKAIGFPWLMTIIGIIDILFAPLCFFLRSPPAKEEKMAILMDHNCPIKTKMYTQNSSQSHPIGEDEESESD
Sequence of VMAT2 (Rattus norvegicus, UniProt Q01827) (Q01827 whole entry): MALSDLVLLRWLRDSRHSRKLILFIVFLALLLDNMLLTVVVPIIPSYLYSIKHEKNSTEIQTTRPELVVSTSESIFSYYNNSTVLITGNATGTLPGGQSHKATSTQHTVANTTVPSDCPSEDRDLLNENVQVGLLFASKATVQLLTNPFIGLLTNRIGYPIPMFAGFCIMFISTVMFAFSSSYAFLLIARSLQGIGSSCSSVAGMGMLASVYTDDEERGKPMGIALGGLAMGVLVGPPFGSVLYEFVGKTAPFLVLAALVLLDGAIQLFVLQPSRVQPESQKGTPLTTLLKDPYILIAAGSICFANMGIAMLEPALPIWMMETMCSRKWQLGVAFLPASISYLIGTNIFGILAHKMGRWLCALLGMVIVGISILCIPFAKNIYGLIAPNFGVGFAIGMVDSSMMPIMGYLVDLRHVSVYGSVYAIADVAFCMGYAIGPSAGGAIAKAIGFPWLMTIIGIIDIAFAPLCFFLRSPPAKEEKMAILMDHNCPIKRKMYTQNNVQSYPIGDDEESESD

On to `CCCCCCCCCCCCCCCCCCCCCC(=O)O[C@@H]1C[C@@H]2c3cc(OC)c(OC)cc3CCN2C[C@H]1CC(C)C` [Compd 1-2, (2R,3R, 11bR)-3-isobutyl-9,10-dimethoxy-1,3,4,6,7,11b-hexahydro-2H-pyrido[2,1 a]isoquinolin-2-yl behenate], for which, in [1], the IC50 (commonly the concentration that inhibits the measured activity by half) is > 10000 nM. Besides, in data set [1], the Ki (in general, the dissociation constant of the complex between target and ligand, obtained from inhibition or displacement) was > 10000 nM. In data set [2], the “color change in organic solvents” value is “no or minimal color change”. For the same compound, the “solubility in pharmaceutical acceptable oils (in words)” value in [3] was “fair to good solubility”. Further, the solubility (usually how much of the substance goes into solution per volume) in [3] (Castor oil) was 31400 µg/mL (≈ 48.9 mM); in [3] (Peanut oil), 70200 µg/mL (≈ 109 mM); in [3] (Soybean oil), 96400 µg/mL (≈ 150 mM); in data set [4] (PBS (10 mM, pH 5.8)) it was < 1 µg/mL; in data set [4] (PBS (10 mM, pH 7.4)), < 1 µg/mL; in data set [4] (setting [11]), 1.7 µg/mL (≈ 0.00265 mM). For the same compound, the figures for the solubility in data set [4] (setting [12]), in data set [5] (DMAc) and in data set [5] (DMSO) were < 1 µg/mL, 8810 µg/mL (≈ 13.7 mM) and 150 µg/mL (≈ 0.234 mM), respectively. Also, in [4], the “aqueous solubility compared with compound IV” value is recorded as “significantly lower aqueous solubility”.

For the compound `COc1cc2c(cc1OC)[C@H]1C[C@@H](O)[C@H](CC(C)C)CN1CC2` [Compd IV, (2R, 3R, 11bR)-3-isobutyl-9,10-dimethoxy-1,3,4,6,7,11b-hexahydro-2H-pyrido[2,1-a]isoquinolin-2-ol, reference compound], in data set [2], the “color change in organic solvents” value was “significant color change”. Further, in data set [3], the “solubility in pharmaceutical acceptable oils (in words)” value is “fair to good solubility”. Besides, the solubility in data set [3] (Castor oil) was determined as 30000 µg/mL (≈ 93.9 mM); in data set [3] (Peanut oil), 10100 µg/mL (≈ 31.6 mM); in data set [3] (Soybean oil), 8000 µg/mL (≈ 25 mM); in data set [4] (PBS (10 mM, pH 5.8)), 1380 µg/mL (≈ 4.32 mM); in data set [4] (PBS (10 mM, pH 7.4)) it was 244 µg/mL (≈ 0.763 mM); in [4] (setting [11]) it was 140 µg/mL (≈ 0.439 mM). The solubility was > 2000 µg/mL in data set [4] (setting [12]), 555000 µg/mL (≈ 1740 mM) in data set [5] (DMAc), 410000 µg/mL (≈ 1280 mM) in data set [5] (DMSO) and 26100 µg/mL (≈ 81.7 mM) in [5] (Triacetin).

As to `CCCCCCCCCCCCCCCC(=O)O[C@@H]1C[C@@H]2c3cc(OC)c(OC)cc3CCN2C[C@H]1CC(C)C` [Compd 1-1, (2R,3R, 11bR)-3-isobutyl-9,10-dimethoxy-1,3,4,6,7,11b-hexahydro-2H-pyrido[2,1-a]isoquinolin-2-yl palmitate], the IC50 in data set [1] was > 10000 nM. The inhibitory constant (Ki) in data set [1] was > 10000 nM. Besides, the “color change in organic solvents” value in [2] was “no or minimal color change”. Moreover, the “solubility in pharmaceutical acceptable oils (in words)” value in data set [3] was “fair to good solubility”. The solubility was 370000 µg/mL (≈ 663 mM) in data set [3] (Castor oil); 266000 µg/mL (≈ 478 mM) in data set [3] (Peanut oil); 277000 µg/mL (≈ 496 mM) in data set [3] (Soybean oil); < 1 µg/mL in data set [4] (PBS (10 mM, pH 5.8)); 1 µg/mL (≈ 0.00179 mM) in data set [4] (PBS (10 mM, pH 7.4)); 32.6 µg/mL (≈ 0.0584 mM) in data set [4] (setting [11]). The solubility was < 1 µg/mL in data set [4] (setting [12]), 513000 µg/mL (≈ 919 mM) in [5] (DMAc), 7800 µg/mL (≈ 14 mM) in [5] (DMSO) and 29900 µg/mL (≈ 53.6 mM) in data set [5] (Triacetin). The “aqueous solubility compared with compound IV” value in data set [4] is “significantly lower aqueous solubility”. Moreover, in [5] (all tested solvent (DMSO, DMAc, triacetin)), the “solubility in organic solvents (in words)” value is listed as “good solubility”. In addition, the “hydrolysis to release (+)-α-DHTBZ (in words)” value in [6] (PLE/compound ratio of 5 or above) is given as “can be hydrolyzed”. The “(+)-α-DHTBZ released by ester hydrolysis” value in [6] (PLE:compound 1-1 1:1, incubation 80 min, 37° C.) was “BQL”.

As to `COc1cc2c(cc1OC)C1CC(=O)C(CC(C)C)CN1CC2` (racemic) [TBZ, 3-isobutyl-9,10,dimethoxy-1,3,4,6,7,11b-hexahydro-2H-pyrido[2,1-a]isoquinolin-2-one], in [7], the IC50 is 3.2 nM.

On to `COc1cc2c(cc1OC)[C@H]1C[C@@H](OC(=O)[C@@H](N)C(C)C)[C@H](CC(C)C)CN1CC2` [VBZ, (S)-2-amino-3-methyl-butyric acid (2R, 3R, 11bR)-3-isobutyl-9,10-dimethoxy-1,3,4,6,7,11b-hexahydro-2H-pyrido[2,1-a]isoquinolin-2-yl], for which, in [8], the Ki was 187 nM. In addition, the “conversion to (+)-α-DHTBZ” value in data set [9] was “can release the active (+)-α-DHTBZ”.

Consider `COc1cc2c(cc1OC)C1CC(OC(C)=O)C(CC(C)C)CN1CC2` (stereo not shown) [acetate ester of Kilbourn], for which, in data set [10], the inhibition constant (Ki) is 16 nM. Further, in data set [9], the “conversion to (+)-α-DHTBZ” value was “no conversion”.

These data come from patent publication US11306082B2, “Esters of dihydrotetrabenazine” (Foresee Pharmaceuticals Co., Ltd., priority 2017, dated 2022).
